From ChEMBL document CHEMBL5625217, “New bysspectin A derivatives as potent inhibitors of human carboxylesterase 2A” (Eur J Med Chem, 2023)

How the values were obtained:
[1] = Inhibition of human CES2A using fluorescein diacetate as fluorescent substrate preincubated for 3 mins followed by substrate addition and measured after 30 mins by fluorescence based analysis
[2] = Metabolic stability in human liver microsomes assessed as half life at 10 uM preincubated for 3 mins followed by UDPGA addition and measured upto 120 mins by HPLC analysis; type: ADME, Microsome; conditions: time < 123 min
[3] = Inhibition of human CES1A using NLMe as substrate preincubated for 3 mins followed by substrate addition and measured after 20 mins by Spectra max microplate reader analysis
[4] = Metabolic stability in human liver microsomes assessed as half life at 10 uM preincubated for 3 mins followed by NADPH addition and measured upto 120 mins by HPLC analysis; type: ADME, Microsome; conditions: time < 123 min
[5] = Binding affinity to human CES2A assessed as inhibition constant using fluorescein diacetate as fluorescent substrate preincubated for 3 mins followed by substrate addition and measured after 30 mins by Lineweaver-Burk plot analysis
[6] = species on record: Homo sapiens; experiment: Selectivity ratio of IC50 for human CES1A to IC50 for human CES2A
[7] = test system: HepG2; experiment: Cytotoxicity against human HepG2 cells assessed as reduction in cell viability at 10 uM measured after 24 hrs by CCK-8 method; type: toxicity, cell-based; conditions: hepg2, 24 h
[8] = Inhibition of intracellular CES2A in human HepG2 cells assessed as reduction in NCEN hydrolysis incubated for 1 hr; type: cell-based

SMILES | IC50 [1] | also measured
CCCCCCCCC(=O)c1cccc2oc(-c3ccccc3C(=O)OC)cc12 | 100 nM | –
CCCCCCC(=O)c1cccc2oc(-c3cc(OC)ccc3O)cc12 | 8 nM | –
CCCCCCCCC(=O)c1cccc2oc(-c3c(O)cccc3C(=O)CCCCCC)cc12 | 54 nM | –
O=c1ccc2ccc(O)cc2o1 [UMBELLIFERONE] | – | half-life at 10 µM [2]: 0.304 h
CCCCCCCCC(=O)c1cccc(O)c1-c1cc2cc(OC)ccc2o1 | 100 nM | –
CCCCCCC(=O)c1cccc2oc(-c3ccccc3C(=O)O)cc12 | 360 nM | –
CCCCCCCCC(=O)c1cccc2oc(-c3ccccc3)cc12 | 5410 nM | –
CCCCCCC(=O)c1cccc2oc(-c3cc(OCC)ccc3O)cc12 | 9 nM | –
CCCCCCCCC(=O)c1cccc2oc(-c3ccc(OC)cc3O)cc12 | 140 nM | –
CCCCCCCCC(=O)c1cccc2oc(-c3cc(OC)ccc3O)cc12 | 22 nM | IC50 [3]: 2610 nM
CCCCCCCCC(=O)c1cccc(O)c1-c1cc2c(C(=O)CCC)cccc2o1 | 120 nM | –
CCCCCCCCC(=O)c1cccc(O)c1-c1cc2cc(C)ccc2o1 | 84 nM | –
CCCCCCCCC(=O)c1cccc2oc(-c3cc(C)ccc3O)cc12 | 54 nM | –
CCCCCCC(=O)c1cccc2oc(-c3cc(C(=O)O)ccc3O)cc12 | 200 nM | –
CCCCCCCCC(=O)c1cccc2oc(-c3ccccc3O)cc12 | 32 nM | –
CCCCCCCCC(=O)c1cccc(O)c1-c1cc2ccc(OC)cc2o1 | 190 nM | –
CCCCCCCCC(=O)c1cccc(O)c1-c1cc2c(C(=O)CCCCCC)cccc2o1 | 58 nM | –

SMILES | IC50 [1] | also measured
CCCCCCCCC(=O)c1cccc(OC)c1-c1cc2c(C(=O)CCCCCCCC)cccc2o1 | 600 nM | –
CCCCCCCCC(=O)c1cccc(O)c1-c1cc2ccccc2o1 | 230 nM | –
CCCCCCCCC(=O)c1cccc2oc(-c3ccccc3C(=O)O)cc12 | 130 nM | –
CCCCCCC(=O)c1cccc2oc(-c3ccc(C)cc3C(=O)OC)cc12 | 300 nM | –
CCCCCCC(=O)c1c(C)ccc2oc(-c3cc(OC)ccc3O)cc12 | 2 nM | half-life at 10 µM [4]: 2.1 h; half-life at 10 µM [2]: 1.62 h; Ki [5]: 1.4 nM; Ratio IC50 [6]: 4540; Activity [7]: Non-Toxic; IC50 [3]: 7260 nM; IC50 ([8]; Homo sapiens, HepG2, 1 h, read-out: IC50): 52 nM; IC50 ([8]; hepg2): Dose-Dependent Effect
CCCCCCC(=O)c1cccc2oc(-c3cc(C(=O)OC)ccc3O)cc12 | 35 nM | –
CCCCCCCCC(=O)c1cccc(OC(C)=O)c1-c1cc2c(C(=O)CCCCCCCC)cccc2o1 | 690 nM | –
CCCCCCC(=O)c1cccc2oc(-c3ccc(C)cc3C(=O)O)cc12 | 490 nM | –
CCCC(=O)c1cccc2oc(-c3cc(OC)ccc3O)cc12 | 21 nM | –
CCCCCCC(=O)c1cccc2oc(-c3ccccc3C(=O)OC)cc12 | 250 nM | –
CCCCCCCCC(=O)c1cccc2oc(-c3c(O)cccc3C(=O)CCC)cc12 | 29 nM | –
C[C@]12CC[C@H]3[C@@H](CCC4=CC(=O)CC[C@@]43C)[C@@H]1CC[C@@H]2O [TESTOSTERONE] | – | half-life at 10 µM [4]: 0.46 h
CCCCCCCCC(=O)c1cccc2oc(-c3ccc(C)cc3C(=O)OC)cc12 | 310 nM | –
CCCCCCCCC(=O)c1cccc(O)c1-c1cc2c(C(=O)CCCCCCCC)cccc2o1 | 1090 nM | –
CCCCCCCCC(=O)c1cccc2oc(-c3ccc(C)cc3C(=O)O)cc12 | 110 nM | –
CCCCCCC(=O)c1cccc2oc(-c3cc(C(F)(F)F)ccc3O)cc12 | 20 nM | –
CN(C)C(=O)C(CCN1CCC(O)(c2ccc(Cl)cc2)CC1)(c1ccccc1)c1ccccc1 [LOPERAMIDE] | 350 nM | –
